Entries after “also recorded” stand apart in the source; their conditions may differ.
What was measured:
Demodex = assay: Human in vivo testing of topical compositions (inventor's self-test, once daily at night) on signs and symptoms of demodicosis
Description: Demodectic mites rapidly desiccate and die when removed from the body and cannot reproduce in vitro, and skin conditions triggered by demodex are part of a complex innate immune response not yet fully explained by medical research. […] Treatment is preferentially once-daily, at night, with topical applications, of a rinse-off shampoo/shower gel, and of a leave-on skin lotion. Treatment of the inflammatory response to demodex with compositions comprising the invention is novel and not previously reported. Treatment of the inflammatory response to demodex includes treatment of type 1 flushing rosacea, type 2 acne rosacea, type 4 ocular rosacea, demodicosis gravis, granulomatous rosacea, and pityriasis folliculorum, and treatment of demodicosis in mammalian quadrupeds, namely, demodectic mange.
Sebaceous glands and meibomian glands clogged by mite-detritus atrophy somewhat, extending the time for complete meibomian gland and pilosebaceous unit healing to approximately 110 days.^12 The foregoing results are consistent with the suppression or eradication of demodectic mites, establishing piroctone olamine treatment as anti-demodectic, as shown by the reduction or elimination of blepharitis, meibomian gland dysfunction, and papules about the eyelids, nose, lips, and lip margins.
The rinse-off cleanser of the compositions comprising the invention, is used as a typical topical shampoo/shower gel, and can be used over the entire scalp and body, with the exception that the rinse-off cleanser is applied to a wet body and lathered without running shower-water, so that the cleanser can be massaged onto the skin and scalp for 3 to 5 minutes, paying particular attention to the face and margins of the eyelids, and then rinsed off. Neither composition is intended to be applied directly onto the cornea, as the eyes are expected to be shut when applying either composition.
The leave-on lotion described herein is used as any typical lotion, and can be used over the entire body, paying particular attention to the face and margins of the eyes, preferentially at night. […]

[1] = cited from earlier work
Malassezia = assay: Self-treatment of seborrheic dermatitis with climbazole topical products; assay type: in vivo, human; settings: rinse-off shampoo/shower gel and leave-on lotion with 0.07% climbazole as active ingredient, MCT oil base
Description: A brief history underscores the relevance of the test results. […] Dermatitis caused a severe impairment in the quality of life. Therefore, beginning three years ago, the inventor studied dermal inflammations, to conduct an accurate differential diagnosis and treat their skin condition. […] Hegor's product however contains sodium lauryl sulfate, which irritates the skin and so this shampoo cannot be used as a leave-on lotion. Moreover, all commercial lotions are formulated with oils with carbon-chain lengths longer than 10 such that Malassezia metabolizes all commercial lotions, which greatly exacerbated the inventor's seborrheic dermatitis. (See, non-patent reference number 30, by Wilde.) Dissatisfied with commercial products that made seborrheic skin conditions worse, sixteen months ago the inventor compounded topical compositions, a rinse-off shampoo/shower gel and a leave-on lotion, where the active ingredient was 0.07% climbazole and the base-oil was exclusively MCT oil (caprylic/capric oil), comprised only of carbon chain lengths of C8 and C10. While using this compounded topical treatment, all symptoms of seborrheic dermatitis induced by Malassezia were eliminated approximately one year ago. […]

[2] = usage thousands of time in excess of the compositions disclosed; cited from earlier work

## CC(C)(C)C(=O)C(Oc1ccc(Cl)cc1)n1ccnc1 (stereo not shown) [climbazole, 1-(4-Chlorophenoxy)-1-(imidazol-1-yl)-3,3-dimethyl-2-butanone]
Demodex; under 0.07% climbazole-only compositions, after seborrheic dermatitis symptoms were eliminated
  red eye and dry eye symptoms: increased significantly
[1]
  solubility in water: barely soluble
Malassezia
  symptoms of seborrheic dermatitis induced by Malassezia: eliminated

## Cc1cc(CC(C)CC(C)(C)C)n(O)c(=O)c1.NCCO (stereo not shown) [piroctone olamine, 1-Hydroxy-4methyl-6-(2,4,4-trimethylpentyl)-2(1H) pyridinone, 2-aminoethanol salt]
[2]
  toxicity in topical usage: non-toxic
Demodex; after compounding and testing the compositions, human test subject
  anti-demodectic treatment effect (concluded from symptom relief): effective anti-demodectic treatment
Demodex; topical compositions with 0.14% piroctone olamine as oil in water emulsion, rinse-off shampoo/shower gel and leave-on lotion once daily at night
  symptoms and signs of blepharitis, meibomian gland dysfunction, and papules about the eyelid margins and lip margins: reduced and eliminated; also recorded: rapid and dramatic reduction
[1]
  solubility in water: barely soluble

Reference: US20160287566A1, “Anti-demodectic active agents and topical compositions for the treatment of demodicosis in humans and animals” (priority 2015, published 2016)
